The values below come from patent US20090053378A1, “Sweetener Compositions Having Enhanced Sweetness and Improved Temporal and/or Flavor Profiles” (THE COCA-COLA COMPANY, priority 2007, published 2009).

Series [1] in a line: Sweetness enhancement tasting of 2-hydroxybenzoic acid derivatives in glucose solution. The following applies: 9% glucose, roughly neutral pH; 9-12 scale (9, 10.5, 12% glucose references). The format is in vivo. The arrangement: key: NSE: No Significant Effect. As for the experimental part:
(§1) The hydroxybenzoic acid derivatives were tasted by themselves in water at a concentration of 3 mM prior to tasting with sucrose, glucose, or fructose to determine enhancement activities. After it was determined that the hydroxybenzoic acid derivatives themselves would contribute no sweetness, they were added to solutions with; 5% fructose, 9% glucose and 6% sucrose. These solutions were adjusted to roughly neutral pH using dilute NaOH solution. The sweetness of the fructose, glucose, and sucrose solutions were evaluated both without and with the hydroxybenzoic acid derivatives using independent sweetness intensity scales for sucrose, fructose, and glucose which were scaled according to references provided for each sweetener, Thus, for sucrose, sweetness references provided were 6, 8, and 10% sucrose and the sweetness intensities of unknown samples were scaled on this 6-10 scale. For fructose, 5, 7.5, and 9% fructose references were provided and the sweetness intensities of unknown samples were scaled on this 5-9 scale. For glucose, 9, 10.5, and 12% glucose references were provided and the sweetness intensities of unknown samples were scaled on this 9-12 scale.

The nature of series [2]: Sweetness enhancement tasting of 2-hydroxybenzoic acid derivatives in sucrose solution. Format: in vivo. Set-up: key: NSE: No Significant Effect. The settings on record: 6% sucrose, roughly neutral pH; 6-10 scale (6, 8, 10% sucrose references). As for the experimental part: as §1
The nature of series [3]: Sweetness enhancement tasting of 2-hydroxybenzoic acid derivatives in fructose solution. The format is in vivo. The arrangement: key: NSE: No Significant Effect. The following applies: 5% fructose, roughly neutral pH; 5-9 scale (5, 7.5, 9% fructose references). As for the experimental part: as §1
A short description of series [4]: Rate of dissolution of rebaudioside A forms in water. The format is physicochemical.

For the molecule `COc1cccc(C(=O)O)c1O` [compound 1], in series [1], the “Glucose sweetness rating, without => with the hydroxybenzoic acid derivative” value (shortened to “Glucose sweetness rating, without =>”) is on record as “NSE”. Moreover, in series [2], the “Sucrose sweetness rating, without => with the hydroxybenzoic acid derivative” value (shortened to “Sucrose sweetness rating, without =>”) is “NSE”. Further, in series [3], the “Fructose sweetness rating, without => with the hydroxybenzoic acid derivative” value (“Fructose sweetness rating, without =>” for short) is reported as “NSE”.

Take `COc1ccc(C(=O)O)c(O)c1` [compound 2]: in series [1], the “Glucose sweetness rating, without =>” value is “NSE”. In series [2], the “Sucrose sweetness rating, without =>” value is “NSE”. In addition, the “Fructose sweetness rating, without =>” value in series [3] is recorded as “NSE”.

Regarding `COc1ccc(O)c(C(=O)O)c1` [compound 3], the “Glucose sweetness rating, without =>” value in series [1] is reported as “NSE”. The “Sucrose sweetness rating, without =>” value in series [2] was “NSE”. The “Fructose sweetness rating, without =>” value in series [3] is on record as “NSE”.

In the case of `COc1cccc(O)c1C(=O)O` [compound 4], the “Glucose sweetness rating, without =>” value in series [1] is reported as “NSE”. The “Sucrose sweetness rating, without =>” value in series [2] is reported as “NSE”. Besides, in series [3], the “Fructose sweetness rating, without =>” value was “NSE”.

On to `O=C(O)c1c(O)cccc1O` [compound 8], for which the “Sucrose sweetness rating, without =>” value in series [2] is on record as “NSE”.

`Cc1ccc(C(=O)O)c(O)c1` [compound 11]: the “Glucose sweetness rating, without =>” value in series [1] was “NSE”. Further, the “Sucrose sweetness rating, without =>” value in series [2] is recorded as “NSE”. Further, the “Fructose sweetness rating, without =>” value in series [3] was “NSE”.

With `Cc1ccc(O)c(C(=O)O)c1` [compound 12], the “Glucose sweetness rating, without =>” value in series [1] is “NSE”. Besides, the “Sucrose sweetness rating, without =>” value in series [2] was “NSE”. The “Fructose sweetness rating, without =>” value in series [3] is “NSE”.

With `CCOc1ccc(C(=O)O)c(O)c1` [compound 14], in series [1], the “Glucose sweetness rating, without =>” value is on record as “NSE”. Moreover, the “Sucrose sweetness rating, without =>” value in series [2] is listed as “NSE”. Also, the “Fructose sweetness rating, without =>” value in series [3] is “NSE”.

On to `O=C(O)c1cccc([N+](=O)[O-])c1O` [compound 18], for which the “Glucose sweetness rating, without =>” value in series [1] is reported as “NSE”. In addition, in series [2], the “Sucrose sweetness rating, without =>” value is given as “NSE”. The “Fructose sweetness rating, without =>” value in series [3] is given as “NSE”.

Turning to `O=C(O)c1cc([N+](=O)[O-])ccc1O` [compound 20], in series [2], the “Sucrose sweetness rating, without =>” value is recorded as “NSE”. The “Fructose sweetness rating, without =>” value in series [3] was “NSE”.

Take `O=C(O)c1cc(F)ccc1O` [compound 23]: the “Glucose sweetness rating, without =>” value in series [1] is “NSE”. The “Sucrose sweetness rating, without =>” value in series [2] is given as “NSE”. For the same molecule, the “Fructose sweetness rating, without =>” value in series [3] is given as “NSE”.

For `O=C(O)c1c(O)cccc1F` [compound 24], the “Glucose sweetness rating, without =>” value in series [1] was “NSE”. The “Sucrose sweetness rating, without =>” value in series [2] is “NSE”. Also, in series [3], the “Fructose sweetness rating, without =>” value is listed as “NSE”.

As to `Cc1c(O)ccc(C(=O)O)c1O` [compound 25], in series [1], the “Glucose sweetness rating, without =>” value is listed as “NSE”. Also, the “Sucrose sweetness rating, without =>” value in series [2] is “NSE”. For the same molecule, the “Fructose sweetness rating, without =>” value in series [3] is “NSE”.

Take `O=C(O)c1ccc(O)c(O)c1O` [compound 26]: in series [1], the “Glucose sweetness rating, without =>” value is “NSE”. Moreover, the “Sucrose sweetness rating, without =>” value in series [2] is on record as “NSE”. Further, in series [3], the “Fructose sweetness rating, without =>” value was “NSE”.

Turning to `Nc1cc(C(=O)O)c(O)c(S(=O)(=O)O)c1` [compound 27], the “Glucose sweetness rating, without =>” value in series [1] is “NSE”. Further, in series [2], the “Sucrose sweetness rating, without =>” value is listed as “NSE”. In addition, in series [3], the “Fructose sweetness rating, without =>” value is listed as “NSE”.

On to `Nc1cccc(C(=O)O)c1O` [compound 28], for which the “Glucose sweetness rating, without =>” value in series [1] is “NSE”. Moreover, in series [2], the “Sucrose sweetness rating, without =>” value was “NSE”. In series [3], the “Fructose sweetness rating, without =>” value is recorded as “NSE”.

`Nc1ccc(C(=O)O)c(O)c1` [compound 29]: in series [3], the “Fructose sweetness rating, without =>” value is “NSE”.

With `Nc1ccc(O)c(C(=O)O)c1` [compound 30], the “Glucose sweetness rating, without =>” value in series [1] is “NSE”. Also, the “Sucrose sweetness rating, without =>” value in series [2] is “NSE”. Also, the “Fructose sweetness rating, without =>” value in series [3] is listed as “NSE”.

As to `Cc1cc(C)c(O)c(C(=O)O)c1` [compound 31], in series [1], the “Glucose sweetness rating, without =>” value is reported as “NSE”. Also, the “Sucrose sweetness rating, without =>” value in series [2] is on record as “NSE”. Besides, in series [3], the “Fructose sweetness rating, without =>” value was “NSE”.

`O=Cc1ccc(O)c(C(=O)O)c1` [compound 32]: the “Glucose sweetness rating, without =>” value in series [1] is “NSE”. Further, the “Sucrose sweetness rating, without =>” value in series [2] is given as “NSE”. Further, in series [3], the “Fructose sweetness rating, without =>” value is “NSE”.

For `O=C(O)c1ccc(O)c(C(=O)O)c1` [compound 33], in series [1], the “Glucose sweetness rating, without =>” value was “NSE”. In addition, in series [2], the “Sucrose sweetness rating, without =>” value is given as “NSE”. Also, in series [3], the “Fructose sweetness rating, without =>” value is given as “NSE”.

As to `CCCOc1ccc(C(=O)O)c(O)c1` [compound 34], in series [1], the “Glucose sweetness rating, without =>” value is reported as “NSE”. In addition, the “Sucrose sweetness rating, without =>” value in series [2] is given as “NSE”. The “Fructose sweetness rating, without =>” value in series [3] is “NSE”.

As to `O=C(O)c1ccc(OCc2ccccc2)cc1O` [compound 35], in series [1], the “Glucose sweetness rating, without =>” value is “NSE”. In addition, in series [2], the “Sucrose sweetness rating, without =>” value is “NSE”. The “Fructose sweetness rating, without =>” value in series [3] is on record as “NSE”.

Consider `O=C(O)c1ccc(OCCCc2ccccc2)cc1O` [compound 36], for which the “Glucose sweetness rating, without =>” value in series [1] is “NSE”. Also, in series [2], the “Sucrose sweetness rating, without =>” value was “NSE”. Besides, the “Fructose sweetness rating, without =>” value in series [3] was “NSE”.

Take `COC(=O)COc1ccc(C(=O)O)c(O)c1` [compound 37]: the “Glucose sweetness rating, without =>” value in series [1] is reported as “NSE”. Also, in series [2], the “Sucrose sweetness rating, without =>” value is recorded as “NSE”. The “Fructose sweetness rating, without =>” value in series [3] is “NSE”.

Take `O=C(O)COc1ccc(C(=O)O)c(O)c1` [compound 38]: in series [1], the “Glucose sweetness rating, without =>” value is on record as “NSE”. Besides, the “Sucrose sweetness rating, without =>” value in series [2] is “NSE”. Moreover, the “Fructose sweetness rating, without =>” value in series [3] is given as “NSE”.

In the case of `O=C(O)c1ccc(OCCO)cc1O` [compound 39], the “Glucose sweetness rating, without =>” value in series [1] is reported as “NSE”. The “Sucrose sweetness rating, without =>” value in series [2] was “NSE”. Besides, the “Fructose sweetness rating, without =>” value in series [3] is given as “NSE”.

As for `O=C(O)c1ccc(OCCCCO)cc1O` [compound 40], in series [1], the “Glucose sweetness rating, without =>” value was “NSE”. Further, in series [2], the “Sucrose sweetness rating, without =>” value is listed as “NSE”. The “Fructose sweetness rating, without =>” value in series [3] was “NSE”.

On to `NC(=O)COc1ccc(C(=O)O)c(O)c1` [compound 41], for which, in series [1], the “Glucose sweetness rating, without =>” value is listed as “NSE”. In addition, in series [2], the “Sucrose sweetness rating, without =>” value is “NSE”. The “Fructose sweetness rating, without =>” value in series [3] is recorded as “NSE”.

In the case of rebaudioside A [Form 1], in series [4] (in 60 minutes), the “Rate of dissolution in H2O at 25° C.” value is “Very low (<0.2%”.

In the case of rebaudioside A [Form 2], the “Rate of dissolution in H2O at 25° C.” value in series [4] (in 5 minutes) is listed as “Intermediate (<30%”.

As to rebaudioside A [Form 3], the “Rate of dissolution in H2O at 25° C.” value in series [4] (in 5 minutes) is “High (>30%”.

On to rebaudioside A [Form 4], for which the “Rate of dissolution in H2O at 25° C.” value in series [4] (in 5 minutes) is “High (>35.0%”.
